Where two headings read alike, the source gives them in different places.
Columns and labels:
casein kinase 2 (CK2α1) [1] = target: T1, casein kinase 2 (CK2α1) (Homo sapiens, UniProt P68400); experiment: cell-free ADP-Glo kinase assay with recombinant CK2α[…] and casein, […] ATP; assay type: biochemical
T1 construct: gene CSNK2A1; recombinant CK2α1

casein kinase 2 (CK2α1) [2] = target: T1, casein kinase 2 (CK2α1); experiment: cell-free ADP-Glo kinase assay, single concentration ([…]) positive control; assay type: biochemical

T1 sequence (P68400 whole entry): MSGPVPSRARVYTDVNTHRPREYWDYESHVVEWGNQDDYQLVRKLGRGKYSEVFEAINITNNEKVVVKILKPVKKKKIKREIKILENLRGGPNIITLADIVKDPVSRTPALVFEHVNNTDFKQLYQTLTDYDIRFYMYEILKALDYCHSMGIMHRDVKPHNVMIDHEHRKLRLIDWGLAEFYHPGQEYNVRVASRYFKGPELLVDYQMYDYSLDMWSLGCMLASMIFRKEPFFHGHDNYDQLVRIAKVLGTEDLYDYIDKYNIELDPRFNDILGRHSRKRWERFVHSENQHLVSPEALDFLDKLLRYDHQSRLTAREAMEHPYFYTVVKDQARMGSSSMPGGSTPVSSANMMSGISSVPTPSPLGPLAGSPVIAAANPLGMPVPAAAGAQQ

O=C1CC[C@]2(O)c3c(ccc(O)c31)-c1ccc(O)c3c1C2[C@H]1O[C@H]1C3=O (stereo partly drawn) [ATX-II, altertoxin II]
IC50 (casein kinase 2 (CK2α1) [1]; read-out: IC50): 5100 nM

Cc1cc(O)cc2oc(=O)c3c(O)cc(O)cc3c12 [AOH, alternariol]
IC50 (casein kinase 2 (CK2α1) [1]): 707 nM

O=c1c(O)c(-c2ccc(O)c(O)c2)oc2cc(O)cc(O)c12 [QUE, quercetin]
inhibition at 10 µM (casein kinase 2 (CK2α1) [2]): 94%

Source: PMC7303061, “Alternaria toxins as casein kinase 2 inhibitors and possible consequences for estrogenicity: a hybrid in silico/in vitro study” (Archives of Toxicology, 2020)
